The text below walks through data of paper PMC12183619, “A Phase 1 Safety Study of Evexomostat (SDX-7320) in Patients with Late-Stage Cancer: An Antiangiogenic, Insulin-Sensitizing Drug Conjugate Targeting METAP2” (Cancer Research Communications, 2025).

The test system of one series is METAP2. Set-up: method as in PMID 16525646, PMID 9177176, PMID 10574784. The settings on record: inactivates aminopeptidase activity; cited from earlier work.
Series [1] in a line: Plasma pharmacokinetics by LC/MS-MS after subcutaneous dosing. Type of series: in vivo, human. The method, then:
Blood samples were collected to enable PK bioanalyses at the following timepoints: cycles 1, 3, and 6: predose, 3, 6, 24, 48, and 96 hours after dosing, and days 8 (predose on the Q7D schedule), 15 (predose) and 22 (predose on the Q7D schedule); cycles 2, 4, 5, 7, and beyond: days 1 (predose), 8 (predose on the Q7D schedule), 15 (predose), and 22 (predose on the Q7D schedule). PK samples were collected on day 1 (predose, 3, 6, and 24 hours) for cycle 1 and then predose days 1 and 15 for even cycles and predose for odd cycles thereafter. Analysis of exploratory biomarkers was conducted using commercially available ELISA kits.
The levels of the released small-molecule METAP2 inhibitor SDX-7539 in plasma were measured using a validated LC/MS-MS method with a lower limit of quantification (LLOQ) of 10.0 pg/mL. The levels of the polymer–drug conjugate evexomostat in plasma were measured using a fit-for-purpose LC/MS-MS method. Target engagement was assessed at various times postdose in lysed whole blood using a validated ELISA designed to measure uninhibited METAP2 ([25]).
Analyses were conducted using SAS v 9.4 (SAS Institute) unless otherwise noted. AEs were coded in MedDRA v18.1 and analyzed by system organ class/preferred term. Treatment-related AEs (TRAE) were tabulated for all events occurring in two patients or more. Response was assessed using RECIST v1.1. PK analysis utilized WinNonlin v8.1 and a noncompartmental analysis approach.

The next series concerns patients. Set-up: method as in PMID 10473076, PMID 12431966. The settings on record: prior clinical trials; cited from earlier work.
The next series has as its system VEGF-D. The arrangement: method as in PMID 17605814, PMID 24220935. The settings on record: cited from earlier work.
[2] abbreviates: released active moiety after subcutaneous evexomostat.

Consider `CO[C@@H]1[C@H](OC(=O)/C=C/C=C/C=C/C=C/C(=O)O)CC[C@]2(CO2)[C@H]1[C@@]1(C)O[C@@H]1CC=C(C)C` [Fumagillin], for which, in the series on METAP2, the “binding to METAP2” value is “potently and irreversibly binds to METAP2”.
Regarding `CO[C@@H]1[C@H](OC(=O)NC2CCC(N)CC2)CC[C@]2(CO2)[C@H]1[C@@]1(C)O[C@@H]1CC=C(C)C` (some centres unmarked) [SDX-7539], the “relationship of plasma Cmax and AUC in cycle 1 with reductions in platelets” value in series [1] (% change from baseline to C1D8 or C1D15) was “potential relationship”. Further, in series [1] (following a single dose of evexomostat), the “time with detectable plasma levels” value turned out to be 7 days. For the same molecule, the “plasma exposure (Cmax, AUC0-t) vs dose” value in series [1] (released SDX-7539 vs administered dose of SDX-7320) is reported as “variability with increasing dose”. In addition, in series [1] (setting [2]), the Tmax in plasma turned out to be 29 h and the “Tmax in plasma, range” value is 6 to 96 h.
On to `CO[C@@H]1[C@H](OC(=O)NC(=O)CCl)CC[C@]2(CO2)[C@H]1[C@@]1(C)O[C@@H]1CC=C(C)C` [TNP-470], for which, in the series with patients, the “dose-limiting CNS toxicities” value is “dose-limiting CNS toxicities were observed”.
For the molecule `CCN(CC)CCNC(=O)c1c(C)[nH]c(/C=C2\C(=O)Nc3ccc(F)cc32)c1C` [sunitinib], in the series with VEGF-D, the “change in circulating VEGF-D” value is reported as “increase circulating VEGF-D”.
